In US11814367B2, “Inhibitors of glycogen synthase 1 (GYS1) and methods of use thereof” (Maze Therapeutics, Inc., priority 2021, dated 2023):

molecular target: hGYS1 enzyme (recombinant hGYS1/GN1 protein) (Homo sapiens (Human), UniProt P13807); assay: GYS1 coupled enzyme assay (PK/LDH); type: biochemical; settings: hGYS1/GN1 50 nM, UDP-Glucose 0.8 mM, G6P 1 mM; geometric mean of at least 2 runs
Sequence (P13807 whole entry): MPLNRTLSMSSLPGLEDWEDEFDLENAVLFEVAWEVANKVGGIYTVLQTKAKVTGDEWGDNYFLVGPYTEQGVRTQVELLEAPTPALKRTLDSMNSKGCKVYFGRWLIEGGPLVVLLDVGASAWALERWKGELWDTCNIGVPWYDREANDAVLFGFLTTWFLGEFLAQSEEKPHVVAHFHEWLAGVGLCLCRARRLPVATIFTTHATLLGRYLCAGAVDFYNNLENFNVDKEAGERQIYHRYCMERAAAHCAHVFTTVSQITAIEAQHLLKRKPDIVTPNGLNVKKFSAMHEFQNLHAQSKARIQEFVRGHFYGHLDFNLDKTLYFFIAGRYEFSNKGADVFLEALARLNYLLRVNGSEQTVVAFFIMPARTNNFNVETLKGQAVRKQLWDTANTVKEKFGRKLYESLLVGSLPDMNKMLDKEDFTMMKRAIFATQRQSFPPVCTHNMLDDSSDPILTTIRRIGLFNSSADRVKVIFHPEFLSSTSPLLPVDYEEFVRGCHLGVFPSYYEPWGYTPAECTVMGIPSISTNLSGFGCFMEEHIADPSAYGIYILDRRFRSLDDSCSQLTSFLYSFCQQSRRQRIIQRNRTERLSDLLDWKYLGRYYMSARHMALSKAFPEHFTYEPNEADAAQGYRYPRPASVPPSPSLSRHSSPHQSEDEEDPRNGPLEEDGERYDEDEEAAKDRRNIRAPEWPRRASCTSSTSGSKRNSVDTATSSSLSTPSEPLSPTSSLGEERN
Sequence (P46976 whole entry partner): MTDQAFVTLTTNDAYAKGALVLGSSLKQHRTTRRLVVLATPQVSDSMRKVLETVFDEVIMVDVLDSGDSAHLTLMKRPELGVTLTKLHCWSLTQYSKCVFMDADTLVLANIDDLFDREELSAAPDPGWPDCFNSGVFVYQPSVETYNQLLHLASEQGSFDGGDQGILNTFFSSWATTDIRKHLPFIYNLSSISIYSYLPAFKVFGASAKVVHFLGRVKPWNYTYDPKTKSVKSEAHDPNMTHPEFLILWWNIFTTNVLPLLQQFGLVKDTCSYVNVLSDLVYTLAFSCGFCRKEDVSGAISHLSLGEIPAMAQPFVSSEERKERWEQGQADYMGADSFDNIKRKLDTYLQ

SMILES | IC50
CC(=O)N1C2CCC1CC(C(=O)N1C[C@H](F)C[C@H]1C(=O)N[C@@H](c1ccccc1)c1ccc(C(C)C)cc1)C2 (stereo partly drawn) [Compound 175, (2S,4R)-1-{8-acetyl-8-azabicyclo[3.2.1]octane-3-carbonyl}-4-fluoro-N-[(S)-phenyl[4-(propan-2-yl)phenyl]methyl]pyrrolidine-2-carboxamide] | 582 nM
CC(=O)N1C[C@@H]2CC[C@H]1C(C(=O)N1C[C@H](F)C[C@H]1C(=O)N[C@@H](c1ccccc1)c1ccc(C(C)C)cc1)C2 (stereo partly drawn) [Compound 176, (2S,4R)-1-[(1S,4R)-2-acetyl-2-azabicyclo[2.2.2]octane-6-carbonyl]-4-fluoro-N-[(S)-phenyl[4-(propan-2-yl)phenyl]methyl]pyrrolidine-2-carboxamide] | 410 nM
CC(=O)N1CCCC(C)(C(=O)N2C[C@H](F)C[C@H]2C(=O)N[C@@H](c2ccccc2)c2ccc(C(C)C)cc2)CC1 (stereo partly drawn) [Compound 181, (2S,4R)-1-(1-acetyl-4-methylazepane-4-carbonyl)-4-fluoro-N-[(S)-phenyl[4-(propan-2-yl)phenyl]methyl]pyrrolidine-2-carboxamide] | 449 nM
CC(=O)N1CCC2(CCCC2C(=O)N2C[C@H](F)C[C@H]2C(=O)N[C@@H](c2ccccc2)c2ccc(C(C)C)cc2)C1 (stereo partly drawn) [Compound 182, (2S,4R)-1-{2-acetyl-2-azaspiro[4.4]nonane-6-carbonyl}-4-fluoro-N-[(S)-phenyl[4-(propan-2-yl)phenyl]methyl]pyrrolidine-2-carboxamide] | 748 nM
CC(C)c1ccc([C@@H](NC(=O)[C@@H]2C[C@@H](F)CN2C(=O)C(O)CO)c2ccccc2)cc1 (stereo partly drawn) [Compound 186, (2S,4R)-1-(2,3-dihydroxypropanoyl)-4-fluoro-N-[(S)-phenyl[4-(propan-2-yl)phenyl]methyl]pyrrolidine-2-carboxamide] | 97 nM
CC(=O)N1[C@H](C(=O)N[C@@H](c2ccccc2)c2ccc(C(C)C)cc2)C[C@@H]2C[C@@H]21 [Compound 199, (1S,3S,5S)-2-acetyl-N-[(S)-phenyl[4-(propan-2-yl)phenyl]methyl]-2-azabicyclo[3.1.0]hexane-3-carboxamide] | 1190 nM
CC(=O)N1[C@@H]2C[C@@H]2C[C@H]1C(=O)N[C@@H](c1ccccc1)c1ccc(C(C)C)cc1 [Compound 200, (1R,3S,5R)-2-acetyl-N-[(S)-phenyl[4-(propan-2-yl)phenyl]methyl]-2-azabicyclo[3.1.0]hexane-3-carboxamide] | 4420 nM
CC(C)c1ccc([C@@H](NC(=O)[C@@H]2CCCN2C(=O)CO)c2ccccc2)cc1 [Compound 211, (2S)-1-(2-hydroxyacetyl)-N-[(S)-phenyl[4-(propan-2-yl)phenyl]methyl]pyrrolidine-2-carboxamide] | 469 nM
CC(=O)NCC(=O)N1CCC[C@H]1C(=O)N[C@@H](c1ccccc1)c1ccc(C(C)C)cc1 [Compound 212, (2S)-1-(2-acetamidoacetyl)-N-[(S)-phenyl[4-(propan-2-yl)phenyl]methyl]pyrrolidine-2-carboxamide] | 95 nM
CC(=O)N1[C@H](C)CC[C@H]1C(=O)N[C@@H](c1ccccc1)c1ccc(C(C)C)cc1 [Compound 215, (2S,5R)-1-acetyl-5-methyl-N-[(S)-phenyl[4-(propan-2-yl)phenyl]methyl]pyrrolidine-2-carboxamide] | 3770 nM
CC(C)c1ccc([C@@H](NC(=O)[C@@H]2C[C@@H](F)CN2C(=O)Cc2cnoc2)c2ccccc2)cc1 [Compound 230, (2S,4R)-4-fluoro-1-[2-(1,2-oxazol-4-yl)acetyl]-N-[(S)-phenyl[4-(propan-2-yl)phenyl]methyl]pyrrolidine-2-carboxamide] | 117 nM
CC(C)c1ccc([C@@H](NC(=O)[C@@H]2C[C@@H](F)CN2C(=O)CN2CCNCC2)c2ccccc2)cc1 [Compound 234, (2S,4R)-4-fluoro-N-[(S)-phenyl[4-(propan-2-yl)phenyl]methyl]-1-[2-(piperazin-1-yl)acetyl]pyrrolidine-2-carboxamide] | 695 nM
CC(=O)N1CCN(CC(=O)N2C[C@H](F)C[C@H]2C(=O)N[C@@H](c2ccccc2)c2ccc(C(C)C)cc2)CC1 [Compound 235, (2S,4R)-1-[2-(4-acetylpiperazin-1-yl)acetyl]-4-fluoro-N-[(S)-phenyl[4-(propan-2-yl)phenyl]methyl]pyrrolidine-2-carboxamide] | 342 nM
CC(C)c1ccc([C@@H](NC(=O)[C@@H]2C[C@@H](F)CN2C(=O)C(C)(C)O)c2ccccc2)cc1F [Compound 327, (2S,4R)-4-fluoro-N-[(S)-[3-fluoro-4-(propan-2-yl)phenyl](phenyl)methyl]-1-(2-hydroxy-2-methylpropanoyl)pyrrolidine-2-carboxamide] | 121 nM
CC(C)c1ccc([C@H](NC(=O)[C@@H]2C[C@@H](F)CN2C(=O)Cc2nnn[nH]2)c2ccccc2)cc1F [Compound 329, (2S,4R)-4-fluoro-N-[(R)-[3-fluoro-4-(propan-2-yl)phenyl](phenyl)methyl]-1-[2-(1H-1,2,3,4-tetrazol-5-yl)acetyl]pyrrolidine-2-carboxamide] | 336 nM
CC(C)c1ccc([C@@H](NC(=O)[C@@H]2CCC3(CC3)N2C(=O)Cc2cnn[nH]2)c2ccccc2)cc1F [Compound 341, (5S)-N-[(S)-[3-fluoro-4-(propan-2-yl)phenyl](phenyl)methyl]-4-[2-(1H-1,2,3-triazol-5-yl)acetyl]-4-azaspiro[2.4]heptane-5-carboxamide] | 780 nM
CC(C)c1ccc([C@@H](NC(=O)[C@@H]2C[C@@H](F)CN2C(=O)Cc2[nH]nnc2N2CCN(C(=O)OC(C)(C)C)CC2)c2ccccc2)cc1F [Compound 370, tert-butyl 4-(5-{2-[(2S,4R)-4-fluoro-2-{[(S)-[3-fluoro-4-(propan-2-yl)phenyl](phenyl)methyl]carbamoyl}pyrrolidin-1-yl]-2-oxoethyl}-1H-1,2,3-triazol-4-yl)piperazine-1-carboxylate] | 569 nM
CC(=O)N1[C@@H](C)CC[C@H]1C(=O)N[C@@H](c1ccccc1)c1ccc(C2CC2)c(F)c1 [Compound 419, (2S,5S)-1-acetyl-N-[(S)-(4-cyclopropyl-3-fluorophenyl)(phenyl)methyl]-5-methylpyrrolidine-2-carboxamide] | 2190 nM
CC(=O)N1[C@H](C(=O)N[C@@H](c2ccccc2)c2ccc(C3CC3)c(F)c2)C[C@@H]2C[C@@H]21 [Compound 420, (1S,3S,5S)-2-acetyl-N-[(S)-(4-cyclopropyl-3-fluorophenyl)(phenyl)methyl]-2-azabicyclo[3.1.0] hexane-3-carboxamide] | 3560 nM
O=C(N[C@@H](c1ccccc1)c1ccc(C2CC2)c(F)c1)[C@@H]1C[C@@H](F)CN1C(=O)Cc1nnc(C2CC2)o1 [Compound 429, (2S,4R)-1-[2-(5-cyclopropyl-1,3,4-oxadiazol-2-yl)acetyl]-N-[(S)-(4-cyclopropyl-3-fluorophenyl)(phenyl)methyl]-4-fluoropyrrolidine-2-carboxamide] | 114 nM
O=C(N[C@@H](c1ccccc1)c1ccc(C2CC2)c(F)c1)[C@@H]1C[C@@H](F)CN1C(=O)Cc1ccon1 [Compound 438, (2S,4R)-N-[(S)-(4-cyclopropyl-3-fluorophenyl)(phenyl)methyl]-4-fluoro-1-[2-(1,2-oxazol-3-yl)acetyl]pyrrolidine-2-carboxamide] | 303 nM
O=C(N[C@@H](c1ccccc1)c1ccc(C2CC2)c(F)c1)[C@@H]1[C@H]2C[C@H]2CN1C(=O)Cc1cnn[nH]1 [Compound 440, (1S,2S,5R)-N-[(S)-(4-cyclopropyl-3-fluorophenyl)(phenyl)methyl]-3-[2-(1H-1,2,3-triazol-5-yl)acetyl]-3-azabicyclo[3.1.0] hexane-2-carboxamide] | 447 nM
NCc1nnc(CC(=O)N2C[C@H](F)C[C@H]2C(=O)N[C@@H](c2ccccc2)c2ccc(C3CC3)c(F)c2)o1 [Compound 489, (2S,4R)-1-{2-[5-(aminomethyl)-1,3,4-oxadiazol-2-yl]acetyl}-N-[(S)-(4-cyclopropyl-3-fluorophenyl)(phenyl)methyl]-4-fluoropyrrolidine-2-carboxamide] | 353 nM
CC(=O)N1C[C@H](F)C[C@H]1C(=O)N[C@@H](c1ccc(C(C)C)cc1)c1ccn[nH]1 [Compound 614, (2S,4R)-1-acetyl-4-fluoro-N-[(S)-[4-(propan-2-yl)phenyl](1H-pyrazol-5-yl)methyl]pyrrolidine-2-carboxamide] | 1150 nM
CC(C)c1ccc([C@H](NC(=O)[C@@H]2C[C@@H](F)CN2C(=O)Cc2cnn[nH]2)c2cccc(F)c2)cc1F [Compound 647, (2S,4R)-4-fluoro-N-[(R)-[3-fluoro-4-(propan-2-yl)phenyl](3-fluorophenyl)methyl]-1-[2-(1H-1,2,3-triazol-5-yl)acetyl]pyrrolidine-2-carboxamide] | 1640 nM
CC(=O)Nc1cccc([C@H](NC(=O)[C@@H]2C[C@@H](F)CN2C(=O)Cc2cn(C)nn2)c2ccc(C(C)C)cc2)c1 [Compound 649, (2S,4R)-N-[(R)-(3-acetamidophenyl) [4-(propan-2-yl)phenyl]methyl]-4-fluoro-1-[2-(1-methyl-1H-1,2,3-triazol-4-yl)acetyl]pyrrolidine-2-carboxamide] | 483 nM
Cc1cc(C(C)C)ccc1[C@@H](NC(=O)[C@@H]1C[C@@H](F)CN1C(=O)Cc1ncco1)c1ccccc1 [Compound 663, (2S,4R)-4-fluoro-N-[(S)-[2-methyl-4-(propan-2-yl)phenyl](phenyl)methyl]-1-[2-(1,3-oxazol-2-yl)acetyl]pyrrolidine-2-carboxamide] | 2020 nM
C#CCCCCCC(=O)N1CCC[C@H]1C(=O)N[C@@H](c1ccccc1)c1ccc(C(C)C)cc1 [Compound 701, (2S)-1-(oct-7-ynoyl)-N-[(S)-phenyl[4-(propan-2-yl)phenyl]methyl]pyrrol-idine-2-carboxamide] | 446 nM
COc1ccc(C2CC2C(=O)N2C[C@H](F)C[C@H]2C(=O)N[C@@H](c2ccccc2)c2ccc(C(C)C)cc2)cc1 (stereo partly drawn) [Compound 703, (2S,4R)-4-fluoro-1-[2-(4-methoxyphenyl)cyclopro-panecarbonyl]-N-[(S)-phenyl[4-(propan-2-yl)phenyl]methyl]pyrrol-idine-2-carboxamide] | 2160 nM
